Experimental data from paper PMC3885546, “Structural Determinants of the 5′-Methylthioinosine Specificity of Plasmodium Purine Nucleoside Phosphorylase” (PLoS ONE, 2014).
Residue numbers refer to the chain shown, from its start.

Legend:
Experiment in all cases: Substrate kinetics, coupled assay
Type in all cases: biochemical
[1] = target: T1, PfPNP Val73Ala (Plasmodium falciparum, UniProt Q8I3X4, V73A); conditions: for Km / kcat: substrate = label
T1 construct: made in house; host or cells: Escherichia coli Top 10
T1 sequence (Q8I3X4 1-245 V73A): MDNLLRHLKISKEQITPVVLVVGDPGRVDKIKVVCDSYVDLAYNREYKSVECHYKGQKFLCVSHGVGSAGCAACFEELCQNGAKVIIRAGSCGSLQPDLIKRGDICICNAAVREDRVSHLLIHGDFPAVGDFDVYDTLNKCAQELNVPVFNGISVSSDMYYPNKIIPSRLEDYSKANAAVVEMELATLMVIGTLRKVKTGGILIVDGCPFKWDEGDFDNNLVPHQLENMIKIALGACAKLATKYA
Description: (§1) Kinetic assays were completed in 50 mM KH2PO4 at pH 7.4 measuring phosphorylysis of inosine or MTI by PNP in a coupled reaction with 60 milliunits/ml xanthine oxidase to convert hypoxanthine to uric acid. Formation of uric acid was measured at 293 nm wavelength (E293 = 12.9 mM^−1 cm^−1), [20]. In cases where activity for MTI was low, increased protein concentration (10 µg/ml) was used to check enzyme function. Assays were performed with excess substrate in the presence of inhibitors. Inhibition studies measured both initial (Ki) and slow onset inhibition (Ki*) for inhibitors. The initial onset inhibition was analyzed by using the following equation: ν ο = (k cat×S)/(K m(1+I/Ki)+S), ν ο is the steady state rate, k cat catalytic rate, S is substrate concentration, Km is Michealis constant for inosine, I is inhibitor concentration, and Ki is the equilibrium dissociation constant.

[2] = target: T2, PfPNP V66I/V73I/Y160F (Plasmodium falciparum, UniProt Q8I3X4, V66I/V73I/Y160F); conditions: for Ino/MTI kcat/Km Ratio / Km / kcat: V66I/V73I/Y160F PfPNP; for Km / kcat: substrate = label
T2 construct: made in house; host or cells: Escherichia coli Top 10
T2 sequence (Q8I3X4 1-245 V66I/V73I/Y160F): T1 sequence (Q8I3X4 1-245 V73A) with V66I, A73I, Y160F
Description: as §1

[3] = target: T3, PfPNP Val66Ile (Plasmodium falciparum, UniProt Q8I3X4, V66I)
T3 construct: made in house; host or cells: Escherichia coli Top 10
T3 sequence (Q8I3X4 1-245 V66I): T1 sequence (Q8I3X4 1-245 V73A) with V66I, A73V
Description: as §1

[4] = target: T4, PfPNP His7Ser (Plasmodium falciparum, UniProt Q8I3X4, H7S); conditions: for Km / kcat: substrate = label
T4 construct: made in house; host or cells: Escherichia coli Top 10
T4 sequence (Q8I3X4 1-245 H7S): T1 sequence (Q8I3X4 1-245 V73A) with H7S, A73V
Description: as §1

[5] = target: T5, PfPNP Val66Ala (Plasmodium falciparum, UniProt Q8I3X4, V66A); conditions: for Km / kcat: substrate = label
T5 construct: made in house; host or cells: Escherichia coli Top 10
T5 sequence (Q8I3X4 1-245 V66A): T1 sequence (Q8I3X4 1-245 V73A) with V66A, A73V
Description: as §1

[6] = target: T6, PfPNP His7Phe (Plasmodium falciparum, UniProt Q8I3X4, H7F); conditions: for Km / kcat: substrate = label
T6 construct: made in house; host or cells: Escherichia coli Top 10
T6 sequence (Q8I3X4 1-245 H7F): T1 sequence (Q8I3X4 1-245 V73A) with H7F, A73V
Description: as §1

[7] = target: T7, PfPNP Val66Ile/Tyr160Phe (Plasmodium falciparum, UniProt Q8I3X4, V66I/Y160F); conditions: for Km / kcat: substrate = label
T7 construct: made in house; host or cells: Escherichia coli Top 10
T7 sequence (Q8I3X4 1-245 V66I/Y160F): T1 sequence (Q8I3X4 1-245 V73A) with V66I, A73V, Y160F
Description: as §1

[8] = V66I:V73I:Y160F PfPNP versus wild type

Compound	Km [1]	kcat [1]	Ino/MTI kcat/Km Ratio [2]	Km [2]	kcat [2]	kcat ([3]; substrate = label)	Km [4]	kcat [4]	Km [5]	kcat [5]	Km [6]	kcat [6]	Km [7]	kcat [7]	other results
5′-methylthioinosine	20 ± 10 µM	1.9 ± 0.3 s⁻¹	160	18 ± 6 µM	0.01 ± 0.00 s⁻¹	1.2 ± 0.7 s⁻¹	3.2 ± 2.7 µM	0.88 ± 0.30 s⁻¹	0.3 ± 0.4 µM	0.12 ± 0.04 s⁻¹	9.6 ± 8 µM	0.21 ± 0.03 s⁻¹	11 ± 2 µM	0.05 ± 0.00 s⁻¹	decrease in kcat [2, 8]: 83 fold; increase in Km [2, 8]: 2 fold
OC[C@H]1O[C@@H](n2cnc3c(O)ncnc32)[C@H](O)[C@@H]1O [Inosine, inosine]	7 ± 4 µM	1.1 ± 0.1 s⁻¹	160	4 ± 1.8 µM	0.36 ± 0.23 s⁻¹	2.0 ± 0.2 s⁻¹	14 ± 3 µM	0.5 ± 0.3 s⁻¹	13 ± 10 µM	2.4 ± 0.6 s⁻¹	353 ± 22 µM	2.2 ± 0.7 s⁻¹	6.2 ± 3.5 µM	1.2 ± 0.16 s⁻¹	Ino/MTI kcat/Km Ratio [1]: 1.6; Ino/MTI kcat/Km Ratio [3]: 1.4; Km ([3]; substrate = label): 16 ± 4 µM; Ino/MTI kcat/Km Ratio [4]: 0.1; Ino/MTI kcat/Km Ratio [5]: 0.5; Ino/MTI kcat/Km Ratio [6]: 0.3; Ino/MTI kcat/Km Ratio [7]: 39
